Patent US12157727B2, “Substituted tetrahydroquinolin compounds as indoleamine 2,3-dioxygenase (IDO) inhibitors” (Merck Sharp & Dohme LLC, priority 2019, dated 2024)

These compounds were tested against T1, IDO1 (Homo sapiens, UniProt P14902) (assay: IDO1 Human Whole Blood Assay). Conditions: LPS and IFNγ 100 ng/mL, overnight (18 h), kynurenine by LC/MS/MS.
T1 construct: Human whole blood was drawn in sodium heparin coated tubes from healthy internal donors; from tissue; host or cells: human whole blood from healthy donors, stimulated with LPS and IFNγ
T1 sequence (P14902 whole entry): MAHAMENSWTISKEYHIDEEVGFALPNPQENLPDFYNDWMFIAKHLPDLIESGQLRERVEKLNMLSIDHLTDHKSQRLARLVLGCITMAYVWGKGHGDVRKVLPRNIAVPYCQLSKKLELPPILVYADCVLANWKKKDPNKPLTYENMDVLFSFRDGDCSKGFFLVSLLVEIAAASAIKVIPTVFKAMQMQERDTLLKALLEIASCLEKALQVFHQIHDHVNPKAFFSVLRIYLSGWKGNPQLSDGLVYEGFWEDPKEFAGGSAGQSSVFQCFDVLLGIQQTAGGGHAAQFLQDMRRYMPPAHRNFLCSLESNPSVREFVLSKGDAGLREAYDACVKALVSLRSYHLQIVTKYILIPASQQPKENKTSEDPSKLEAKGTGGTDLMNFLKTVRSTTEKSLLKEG
Format: cell-based
Experimental: Compounds to be tested were serially diluted in ten 3-fold steps in DMSO starting from 10 mM. 3 μL of compound dilutions or DMSO alone were then dispensed from the dilution plate into a polypropylene 96-well assay plate containing 97 μL of RPMI using an Echo 555 acoustic liquid handler (Labcyte). LPS and IFNγ was prepared in RPMI to a 10× of final conc. (1000 ng/mL), final concentration is 100 ng/mL.
Human whole blood was drawn in sodium heparin coated tubes from healthy internal donors. 240 μL of blood was transferred to each of the wells of a v-bottom 96 well plate. 30 μL of compound was transferred from intermediate dilution plate, and incubated for 15 min. 30 μL from stimulants was then transferred to blood and mixed thoroughly. Plate was covered with breathable membrane and incubated at 37° C. for overnight (18 h).
On day 2 isotope labeled standard of kynurenine and tryptophan was made in water at 10×concentration and 30 μL was added to the blood at 3 μM final concentration. The assay plates were centrifuged at 300×G for 10 min with no brake to separate plasma from red blood cells. 60 μL of plasma samples was removed without disturbing red blood cells. Plasma was diluted with RPMI in 1:1 ratio and proteins were precipitated out with two volumes of Acetonitrile. The plates were centrifuged at 4000×G for 60 min. 20 μL of supernatant was carefully transferred to a 384 well plate contain 40 μL of 0.1% formic acid in water and analyzed by LC/MS/MS.
LC/MS/MS analyses were performed using Thermo Fisher's LX4-TSQ Quantum Ultra system. This system consists of four Agilent binary high-performance liquid chromatography (HPLC) pumps and a TSQ Quantum Ultra triple quadrupole MS/MS instrument. For each sample, 5 μL were injected onto an Atlantis T3 column (2.1 mm×150 mm, 3 μm particle size) from Waters. The mobile phase gradient pumped at 0.8 mL/min was used to elute the analytes from the column at 25° C. The elution started at 0% B increasing linearly to 25% B at 6.5 min, holding at 25% for 1 min, re-equilibrating to 10 min. Mobile phase A consisted of 0.1% formic acid in water. Mobile phase B consisted of 0.1% of formic acid in acetonitrile. Data was acquired in positive mode using a HESI interface. The operational parameters for the TSQ Quantum Ultra instrument were a spray voltage of 4000 V, capillary temperature of 380° C., vaporizer temperature 400° C., shealth gas 60 arbitrary units, Aux gas 20 arbitrary units, tube lens 85 and collision gas 1.2 mTorr. SRM chromatograms of kynurenine (Q1: 209.2>Q3:94.0) and internal standard (Q1: 215.3>Q3:98.2) were collected for 90 sec. The peak area was integrated by Xcalibur Quan software. The ratios between the kynurenine generated in the reaction and 2D6-Kynurenine spiked-in internal standard were used to generate percentage inhibition and IC50 values. Compounds were titrated and IC50' s were calculated by 4 parameter sigmoidal curve fitting formula.

Question: With `FC(F)(F)c1nccc(N2CCCc3nc(C4(c5nc6cc(Cl)cnc6[nH]5)CCC4)ccc32)n1` [Example 35, 6-[1-(6-chloro-3H-imidazo[4,5-b]pyridin-2-yl)cyclobutyl]-1-[2-(trifluoromethyl)pyrimidin-4-yl]-1,2,3,4-tetrahydro-1,5-naphthyridine] as the compound, how does the IC50 read?
Answer: The IC50 was 53.9 nM.

Question: For `O=C([C@@H]1CCCCO1)N1CCCc2nc(C3(c4nc5ncc(C(F)(F)F)cc5[nH]4)CCC3)ccc21` [Example 15, (S)-(tetrahydro-2H-pyran-2-yl)(6-(1-(6-(trifluoromethyl)-1H-imidazo[4,5-b]pyridin-2-yl)cyclobutyl)-3,4-dihydro-1,5-naphthyridin-1(2H)-yl)methanone], which IC50 is on record?
Answer: Its IC50 is 26.1 nM.

Question: `COC(=O)N1CCCc2cc(C3(c4nc5ncc(C(F)(F)F)cc5[nH]4)CCC3)ccc21` [Example 5, Methyl 6-(1-(6-(trifluoromethyl)-1H-imidazo[4,5-b]pyridin-2-yl)cyclobutyl)-3,4-dihydroquinoline-1(2H)-carboxylate] was tested. Which IC50 did it give?
Answer: The IC50 was 229 nM.

Question: How did the IC50 turn out when `Cc1nccc(N2CCCc3nc(C4(c5nc6cc(C(F)(F)F)cnc6[nH]5)CCC4)ccc32)n1` [Example 30, 1-(2-methylpyrimidin-4-yl)-6-(1-(6-(trifluoromethyl)-3H-imidazo[4,5-b]pyridin-2-vyl)cyclobutyl)-1,2,3,4-tetrahydro-1,5-naphthyridine] was run?
Answer: The IC50 was 355 nM.

Question: `O=C(OC1CC1)N1CCCc2nc(C3(c4nc5ncc(C(F)(F)F)cc5[nH]4)CCC3)ccc21` [Example 23, cyclopropyl 6-{1-[6-(trifluoromethyl)-1H-imidazo[4,5-b]pyridin-2-yl]cyclobutyl}-3,4-dihydro-1,5-naphthyridine-1(2H)-carboxylate] was tested. Which IC50 did it give?
Answer: The IC50 was 64.2 nM.

Question: With `N#Cc1ccc2nc(C3(c4ccc5c(n4)CCCN5C(=O)OC4CC4)CCC3)[nH]c2c1` [Example 20, cyclopropyl 6-[1-(6-cyano-1H-benzimidazol-2-yl)cyclobutyl]-3,4-dihydro-1,5-naphthyridine-1(2H)-carboxylate] as the compound, how does the IC50 read?
Answer: The IC50 was 35 nM.

Question: `FC(F)(F)c1nccc(N2CCCc3nc(C4(c5nc6cc(Cl)ccc6[nH]5)CCC4)ccc32)n1` [Example 33, 6-[1-(5-chloro-1H-benzimidazol-2-yl)cyclobutyl]-1-[2-(trifluoromethyl)pyrimidin-4-yl]-1,2,3,4-tetrahydro-1,5-naphthyridine] was tested. Which IC50 did it give?
Answer: The IC50 was 83.3 nM.

Question: For `N#Cc1ccc2nc(C3(c4ccc5c(c4)CCCN5C(=O)C4CC4)CCC3)[nH]c2c1` [Example 4, 2-{1-[1-(cyclopropane-carbonyl)-1,2,3,4-tetrahydroquinolin-6-yl]cyclobutyl}-1H-benzimidazole-6-carbonitrile], which IC50 is on record?
Answer: Its IC50 is 27 nM.

Question: For `O=C([C@H]1CCCO1)N1CCCc2cc(C3(c4nc5ncc(C(F)(F)F)cc5[nH]4)CCC3)ccc21` [Example 3, [(2R)-oxolan-2-yl][6-{1-[6-(trifluoromethyl)-1H-imidazo[4,5-b]pyridin-2-yl]cyclobutyl}-3,4-dihydroquinolin-1(2H)-yl]methanone], which IC50 is on record?
Answer: Its IC50 is 30.7 nM.

Question: `O=C(C1CC1)N1CCCc2cc(C3(c4nc5ncc(C(F)(F)F)cc5[nH]4)CCC3)ccc21` [Example 1, Cyclopropyl(6-(1-(6-(trifluoromethyl)-1H-imidazo[4,5-b]pyridin-2-yl)cyclobutyl)-3A-dihydroquinolin-1(2H)-yl)methanone] was tested. Which IC50 did it give?
Answer: Its IC50 is 186 nM.

Question: Which IC50 does the source give for `O=C(c1ccccc1Cl)N1CCCc2nc(C3(c4nc5ncc(C(F)(F)F)cc5[nH]4)CCC3)ccc21` [Example 17, (2-chlorophenyl)[6-{1-[6-(trifluoromethyl)-1H-imidazo[4,5-b]pyridin-2-yl]cyclobutyl}-3,4-dihydro-1,5-naphthyridin-1(2H)-yl]methanone] here?
Answer: Its IC50 is 47.8 nM.

Question: Which IC50 does the source give for `Cc1nccc(N2CCCc3nc(C4(c5nc6cc(Cl)ccc6[nH]5)CCC4)ccc32)n1` [Example 34, 6-[1-(6-chloro-1H-benzimidazol-2-yl)cyclobutyl]-1-(2-methylpyrimidin-4-yl)-1,2,3,4-tetrahydro-1,5-naphthyridine] here?
Answer: The IC50 was 140 nM.

Question: Which IC50 does the source give for `O=C(C1CC1)N1CCCc2cc(C3(c4nc5ccc(Cl)cc5[nH]4)CCC3)ccc21` [Example 2, {6-[1-(6-chloro-1H-benzimidazol-2-yl)cyclobutyl]-3,4-dihydroquinolin-1(2H)-yl}(cyclopropyl) methanone] here?
Answer: The IC50 was 132 nM.

Question: Which IC50 does the source give for `O=C([C@H]1CCCCO1)N1CCCc2nc(C3(c4nc5ncc(C(F)(F)F)cc5[nH]4)CCC3)ccc21` [Example 16, (R)-(tetrahydro-2H-pyran-2-yl)(6-(1-(6-(trifluoromethyl)-1H-imidazo[4,5-b]pyridin-2-yl)cyclobutyl)-3,4-dihydro-1,5-naphthyridin-1(2H)-yl)methanone] here?
Answer: Its IC50 is 14.1 nM.

Question: Which IC50 does the source give for `C[C@@H](c1ccc2c(n1)CCCN2C(=O)OC1CC1)c1nc2ccc(Cl)cc2[nH]1` [Example 26, cyclopropyl (S)-6-(1-(6-chloro-1H-benzo[d]imidazol-2-yl)ethyl)-3,4-dihydro-1,5-naphthyridine-1(2H)-carboxylate] here?
Answer: Its IC50 is 55 nM.

Question: How did the IC50 turn out when `O=C(C1CC1)N1CCCc2nc(C3(c4nc5cc(C(F)(F)F)cnc5[nH]4)CCC3)ccc21` [Example 13, Cyclopropyl(6-(1-(6-(trifluoromethyl)-3H-imidazo[4,5-b]pyridin-2-yl)cyclobutyl)-3,4-dihydro-1,5-naphthyridin-1(2H),-yl)methanone] was run?
Answer: The IC50 was 56.3 nM.

Question: For `CCOC(=O)N1CCCc2nc(C3(c4nc5cc(C(F)(F)F)cnc5[nH]4)CCC3)ccc21` [Example 19, ethyl 6-{1-[6-(trifluoromethyl)-3H-imidazo[4,5-b]pyridin-2-yl]cyclobutyl}-3,4-dihydro-1,5-naphthyridine-1(2H)-carboxylate], which IC50 is on record?
Answer: Its IC50 is 274 nM.

Question: How did the IC50 turn out when `N#Cc1ccc2nc(C3(c4ccc5c(n4)CCCN5c4ccnc(C(F)(F)F)n4)CC4(CC4)C3)[nH]c2c1` [Example 41, 2-(5-(5-(2-(trifluoromethyl)pyrimidin-4-yl)-5,6,7,8-tetrahydro-1,5-naphthyridin-2-yl)spiro[2,3]hexan-5-yl)-1H-benzo[d]imidazole-6-carbonitrile] was run?
Answer: Its IC50 is 71.3 nM.

Question: With `O=C(OC1CC1)N1CCCc2nc(C3(c4nc5ccc(Cl)cc5[nH]4)CCC3)ccc21` [Example 21, cyclopropyl 6-[1-(6-chloro-1H-benzimidazol-2-yl)cyclobutyl]-3,4-dihydro-1,5-naphthyridine-1(2H)-carboxylate] as the compound, how does the IC50 read?
Answer: The IC50 was 44.1 nM.

Question: For `CC(c1ccc2c(n1)CCCN2C(=O)OC1CC1)c1nc2ccc(Cl)cc2[nH]1` (stereo not drawn) [Example 25, cyclopropyl 6-(1-(6-chloro-1H-benzo[d]imidazol-2-yl)ethyl)-3,4-dihydro-1,5-naphthyridine-1(2H)-carboxylate], which IC50 is on record?
Answer: Its IC50 is 117 nM.

Question: `COC(=O)N1CCCc2nc(C3(c4nc5cc(C(F)(F)F)cnc5[nH]4)CCC3)ccc21` [Example 18, methyl 6-(1-(6-(trifluoromethyl)-3H-imidazo[4,5-b]pyridin-2-yl)cyclobutyl)-3,4-dihydro-1,5-naphthyridine-1(2H),-carboxylate] was tested. Which IC50 did it give?
Answer: Its IC50 is 494 nM.

Question: For `N#Cc1cnc2nc(C3(c4ccc5c(n4)CCCN5C(=O)OC4CC4)CCC3)[nH]c2c1` [Example 24, cyclopropyl 6-[1-(6-cyano-1H-imidazo[4,5-b]pyridin-2-yl)cyclobutyl]-3,4-dihydro-1,5-naphthyridine-1(2H)-carboxylate], which IC50 is on record?
Answer: The IC50 was 121 nM.

Question: Which IC50 does the source give for `C[C@H](c1ccc2c(n1)CCCN2C(=O)OC1CC1)c1nc2ccc(Cl)cc2[nH]1` [Example 27, cyclopropyl (R)-6-(1-(6-chloro-1H-benzo[d]imidazol-2-yl)ethyl)-3,4-dihydro-1,5-naphthyridine-1(2H)-carboxylate] here?
Answer: Its IC50 is 56.8 nM.

Question: How did the IC50 turn out when `O=C(OC1CC1)N1CCCc2nc(C3(c4nc5ncc(Cl)cc5[nH]4)CCC3)ccc21` [Example 22, cyclopropyl 6-[1-(6-chloro-1H-imidazo[4,5-b]pyridin-2-yl)cyclobutyl]-3,4-dihydro-1,5-naphthyridine-1(2H)-carboxylate] was run?
Answer: The IC50 was 60.5 nM.
